# Results taken from paper PMC4764579, “Structural insights into the mechanism of activation of the TRPV1 channel by a membrane-bound tarantula toxin” (eLife, 2016).
# Legend:
# [1] = target: rat TRPV1, full-length channel expressed in HEK293 cells (rat) (UniProt O35433)
# Sequence of rat TRPV1, full-length channel expressed in HEK293 cells (rat) (O35433 whole entry): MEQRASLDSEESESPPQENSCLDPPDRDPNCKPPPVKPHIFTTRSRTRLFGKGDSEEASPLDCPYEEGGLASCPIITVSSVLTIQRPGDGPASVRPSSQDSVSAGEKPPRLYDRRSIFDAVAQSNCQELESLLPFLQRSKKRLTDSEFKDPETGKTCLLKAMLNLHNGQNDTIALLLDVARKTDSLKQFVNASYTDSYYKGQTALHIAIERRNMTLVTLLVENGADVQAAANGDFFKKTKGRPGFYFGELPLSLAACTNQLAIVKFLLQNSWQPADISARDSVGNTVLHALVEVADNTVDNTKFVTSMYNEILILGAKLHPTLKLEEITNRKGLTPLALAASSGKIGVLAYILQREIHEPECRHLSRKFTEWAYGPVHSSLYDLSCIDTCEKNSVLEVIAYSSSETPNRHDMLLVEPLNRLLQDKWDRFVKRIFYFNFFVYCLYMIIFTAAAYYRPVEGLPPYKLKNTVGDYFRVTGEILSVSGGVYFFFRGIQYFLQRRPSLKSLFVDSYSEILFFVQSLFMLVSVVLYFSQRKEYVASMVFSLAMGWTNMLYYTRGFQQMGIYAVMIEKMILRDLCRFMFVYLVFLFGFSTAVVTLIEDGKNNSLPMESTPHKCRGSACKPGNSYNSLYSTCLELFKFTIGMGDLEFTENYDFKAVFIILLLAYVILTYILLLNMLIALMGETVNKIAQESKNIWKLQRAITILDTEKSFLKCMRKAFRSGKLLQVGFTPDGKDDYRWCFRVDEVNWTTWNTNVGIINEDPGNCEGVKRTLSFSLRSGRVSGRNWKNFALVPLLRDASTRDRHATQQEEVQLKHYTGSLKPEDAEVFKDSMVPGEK
# Sequence of double-knot toxin (DkTx), full-length toxin produced recombinantly (natural protein) (P0CH43 1-75): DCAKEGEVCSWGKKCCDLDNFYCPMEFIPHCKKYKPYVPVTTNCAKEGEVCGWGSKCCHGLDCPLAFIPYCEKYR
Substance,Trp emission maximum in aqueous solution [nm],"fractional dissociation 1 min after toxin removal (current 1 min after removal divided by steady-state current with toxin), whole-cell patch clamp at +120 mV, TRPV1 in HEK cells [1]"
double-knot toxin,353,–
"double-knot toxin (DkTx), full-length toxin produced recombinantly (natural protein)",–,0.8
